According to ChEMBL document CHEMBL6074689 (Eur J Med Chem, 2025):
Active and inactive are the calls of the source. The rule behind the calls is not given here.

How the values were obtained:
[1] = target: T1, Acetylcholinesterase (Homo sapiens, UniProt P22303); assay: Inhibition of human recombinant AChE expressed in HEK293 cells using acetylthiocholine iodide as substrate preincubated with compound for 30 mins followed by substrate addition and measured after 30 mins by DTNB reagent based Ellman's method
T1 sequence (P22303 whole entry): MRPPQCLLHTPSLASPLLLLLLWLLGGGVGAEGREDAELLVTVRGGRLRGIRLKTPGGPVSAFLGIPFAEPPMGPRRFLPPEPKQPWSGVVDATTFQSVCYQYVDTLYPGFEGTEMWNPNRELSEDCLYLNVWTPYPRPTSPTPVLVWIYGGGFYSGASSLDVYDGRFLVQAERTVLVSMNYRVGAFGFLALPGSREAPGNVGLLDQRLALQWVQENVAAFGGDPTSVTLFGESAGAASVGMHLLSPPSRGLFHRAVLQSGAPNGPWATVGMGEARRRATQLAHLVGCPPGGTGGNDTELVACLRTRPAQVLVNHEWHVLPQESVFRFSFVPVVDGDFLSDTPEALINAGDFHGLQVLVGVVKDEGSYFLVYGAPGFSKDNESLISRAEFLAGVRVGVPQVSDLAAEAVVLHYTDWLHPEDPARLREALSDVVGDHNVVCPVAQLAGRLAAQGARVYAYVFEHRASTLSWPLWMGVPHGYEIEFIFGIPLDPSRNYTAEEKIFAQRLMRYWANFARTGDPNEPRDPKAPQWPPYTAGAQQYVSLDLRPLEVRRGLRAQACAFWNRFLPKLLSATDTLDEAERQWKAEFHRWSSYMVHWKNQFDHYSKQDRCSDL

[2] = target: Cholinesterase (Equus caballus, UniProt P81908); assay: Inhibition of equine serum BChE using acetylthiocholine iodide as substrate preincubated with compound for 30 mins followed by substrate addition and measured after 30 mins by DTNB reagent based Ellman's method
Cholinesterase, sequence (P81908 whole entry): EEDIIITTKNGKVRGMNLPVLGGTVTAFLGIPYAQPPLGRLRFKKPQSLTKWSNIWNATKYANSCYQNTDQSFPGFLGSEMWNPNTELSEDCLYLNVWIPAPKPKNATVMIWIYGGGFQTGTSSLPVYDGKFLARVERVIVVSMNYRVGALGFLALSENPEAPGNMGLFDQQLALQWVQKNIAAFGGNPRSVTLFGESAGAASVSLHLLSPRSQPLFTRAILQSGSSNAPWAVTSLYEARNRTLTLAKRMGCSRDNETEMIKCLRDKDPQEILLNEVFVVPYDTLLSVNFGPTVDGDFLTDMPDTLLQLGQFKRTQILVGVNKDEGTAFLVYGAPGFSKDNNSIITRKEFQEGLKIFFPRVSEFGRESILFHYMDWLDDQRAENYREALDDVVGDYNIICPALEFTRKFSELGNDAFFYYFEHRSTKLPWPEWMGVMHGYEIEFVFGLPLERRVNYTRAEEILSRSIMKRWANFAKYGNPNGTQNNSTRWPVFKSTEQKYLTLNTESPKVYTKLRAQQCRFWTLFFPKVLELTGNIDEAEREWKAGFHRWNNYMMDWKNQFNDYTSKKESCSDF

[3] = target: T1, Acetylcholinesterase; assay: Displacement of propidium iodide from human AChE PAS assessed as reduction in fluorescence intensity at 5 uM incubated for 6 hrs by fluorescence based analysis relative to control; parameters: scale not given: the % may be the effect or the level left
[4] = target: T1, Acetylcholinesterase; assay: Displacement of propidium iodide from human AChE PAS assessed as reduction in fluorescence intensity at 1 uM incubated for 6 hrs by fluorescence based analysis relative to control; parameters: scale not given: the % may be the effect or the level left
[5] = target: T1, Acetylcholinesterase; assay: Displacement of propidium iodide from human AChE PAS assessed as reduction in fluorescence intensity at 0.1 uM incubated for 6 hrs by fluorescence based analysis relative to control; parameters: scale not given: the % may be the effect or the level left
[6] = target: T1, Acetylcholinesterase; assay: Displacement of propidium iodide from human AChE PAS assessed as reduction in fluorescence intensity at 0.01 uM incubated for 6 hrs by fluorescence based analysis relative to control; parameters: scale not given: the % may be the effect or the level left
[7] = Antioxidant activity assessed as DPPH radical scavenging activity incubated for 30 mins; type: functional
[8] = tested on: PC-12; assay: Cytotoxicity against rat PC-12 cells assessed as cell viability upto 20 uM measured for 24 hrs by MTT assay; type: toxicity, cell-based; details: pc-12, 24 h
[9] = tested on: PC-12; assay: Neuroprotective activity against H2O2-induced oxidative stress in rat PC-12 cells assessed as cell viability at 1 to 20 uM preincubated with compound for 24 hrs and followed by H2O2 induction and measured after 24 hrs by MTT assay; type: functional, cell-based; details: dose 1-20 µM, time 48.0 hrs
[10] = tested on: PC-12; assay: Induction of apoptosis in rat PC-12 cells assessed as viable cells at 2.5 uM incubated for 24 hrs by Annexin V/PI staining based flow cytometry analysis (reference value: 82.8%); type: functional; details: read-out: Activity
[11] = tested on: PC-12; assay: Induction of apoptosis in rat PC-12 cells assessed as viable cells at 10 uM incubated for 24 hrs by Annexin V/PI staining based flow cytometry analysis (reference value: 82.8%); type: functional; details: read-out: Activity
[12] = tested on: PC-12; assay: Induction of apoptosis in rat PC-12 cells assessed as viable cells at 5 uM incubated for 24 hrs by Annexin V/PI staining based flow cytometry analysis (reference value: 82.8%); type: functional; details: read-out: Activity
[13] = tested on: PC-12; assay: Induction of apoptosis in rat PC-12 cells assessed as viable cells at 20 uM incubated for 24 hrs by Annexin V/PI staining based flow cytometry analysis (reference value: 82.8%); type: functional; details: read-out: Activity
[14] = Metal chelating activity assessed as compound-Fe2+ complex formation by measuring increase in absorption intensity at 300 uM in presence of by UV-vis spectrometry
[15] = Metal chelating activity assessed as compound-Cu2+ complex formation by measuring increase in absorption intensity at 300 uM in presence of by UV-vis spectrometry
[16] = Permeability of the compound across blood brain barrier; type: ADME; details: read-out: BBB
[17] = target: Amyloid-beta precursor protein (Homo sapiens) (UniProt P05067); assay: Inhibition of amyloid beta (1 to 42) (unknown origin) self induced aggregation at 1.521 uM incubated for 72 hrs by ThT fluorescence based assay
Amyloid-beta precursor protein (Homo sapiens), sequence (P05067 whole entry): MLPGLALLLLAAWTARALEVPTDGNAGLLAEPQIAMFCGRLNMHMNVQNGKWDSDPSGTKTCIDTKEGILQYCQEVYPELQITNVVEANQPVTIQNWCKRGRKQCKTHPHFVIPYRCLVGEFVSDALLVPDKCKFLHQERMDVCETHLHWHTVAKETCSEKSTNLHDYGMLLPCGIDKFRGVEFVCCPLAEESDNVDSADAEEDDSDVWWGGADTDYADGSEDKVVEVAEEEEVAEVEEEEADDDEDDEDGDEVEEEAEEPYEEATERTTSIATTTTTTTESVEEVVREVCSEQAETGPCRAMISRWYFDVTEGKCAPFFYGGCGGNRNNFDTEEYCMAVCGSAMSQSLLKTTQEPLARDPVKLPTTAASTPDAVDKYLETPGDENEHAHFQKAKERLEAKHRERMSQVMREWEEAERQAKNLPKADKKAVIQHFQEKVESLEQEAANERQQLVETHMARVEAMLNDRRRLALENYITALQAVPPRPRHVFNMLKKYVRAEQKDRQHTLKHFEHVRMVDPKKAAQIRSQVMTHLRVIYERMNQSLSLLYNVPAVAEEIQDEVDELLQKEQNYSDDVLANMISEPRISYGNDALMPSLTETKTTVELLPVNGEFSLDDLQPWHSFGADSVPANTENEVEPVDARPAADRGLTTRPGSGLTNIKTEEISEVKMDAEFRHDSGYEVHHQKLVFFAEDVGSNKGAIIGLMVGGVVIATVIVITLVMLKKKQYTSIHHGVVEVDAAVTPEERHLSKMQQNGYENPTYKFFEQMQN

[18] = target: Amyloid-beta precursor protein (Homo sapiens) (UniProt P05067); assay: Inhibition of amyloid beta (1 to 42) (unknown origin) self induced aggregation at 1.521 uM incubated for 72 hrs by transmission electron microscopic analysis
[19] = Toxicity in Drosophila melanogaster Oregon R-positive assessed as reduction in eclosed flies at 40 uM measured for 15 days relative to control; parameters: scale not given: the % may be the effect or the level left; details: 360 h, time 15 day
[20] = Acute toxicity in Swiss albino mouse assessed as body weight gain at 175 mg/kg, po administered for 14 days; type: organism-based; details: in vivo, 336 h, time 14 day
[21] = tested on: Drosophila melanogaster; assay: Anti-alzheimer activity in ey-GAL4 driven UAS-amyloid beta (1 to 42) induced Drosophila melanogaster Oregon R-positive assessed as fold increase in superoxide level at 10 uM by fluorescence based analysis; type: functional
[22] = tested on: Drosophila melanogaster; assay: Inhibition of oxidative stress in y-GAL4 driven UAS-amyloid beta (1 to 42) induced Drosophila melanogaster Oregon R-positive assessed as fold increase in ROS level at 10 to 20 uM incubated for 30 mins by H2DCFDA staining based analysis; type: functional; details: dose 10-20 µM, 0.5 h
[23] = Acute toxicity in Swiss albino mouse assessed as animal survival at 175 mg/kg, po administered for 14 days; type: organism-based; details: in vivo, 336 h, time 14 day
[24] = Acute toxicity in Swiss albino mouse assessed as abnormal behavior at 175 mg/kg, po administered for 14 days; type: organism-based; details: in vivo, 336 h, time 14 day
[25] = Acute toxicity in Swiss albino mouse assessed as convulsion at 175 mg/kg, po administered for 14 days; type: organism-based; details: in vivo, 336 h, time 14 day
[26] = Acute toxicity in Swiss albino mouse assessed as tremor at 175 mg/kg, po administered for 14 days; type: organism-based; details: in vivo, 336 h, time 14 day
[27] = tested on: Mus musculus; assay: Antialzheimer activity in scopolamine-induced Swiss albino mouse model assessed as decrease in escape latency at 0.3 to 0.5 mg/kg, po preincubated with compound for 30 mins followed by scopolamine induction and measured after 5 days by Morris water maze test; type: functional, organism-based; details: dose 0.3-0.5 mg/kg, time 7230.0 min
[28] = tested on: Mus musculus; assay: Antialzheimer activity in scopolamine-induced Swiss albino mouse model assessed as improvement in memory retention by measuring time spent in platform quadrant at 0.3 to 0.5 mg/kg, po preincubated with compound for 30 mins followed by scopolamine induction and measured after 5 days by Morris water maze test; type: functional, organism-based; details: dose 0.3-0.5 mg/kg, time 7230.0 min
[29] = tested on: Mus musculus; assay: Antialzheimer activity in scopolamine-induced Swiss albino mouse model assessed as reduction in AChE level at 0.3 to 0.5 mg/kg, po preincubated with compound for 30 mins followed by scopolamine induction and measured after 30 mins; type: functional, organism-based; details: dose 0.3-0.5 mg/kg, time 1.0 hrs
[30] = tested on: Mus musculus; assay: Antialzheimer activity in scopolamine-induced Swiss albino mouse model assessed as reduction in BChE level at 0.3 to 0.5 mg/kg, po preincubated with compound for 30 mins followed by scopolamine induction and measured after 30 mins; type: functional, organism-based; details: dose 0.3-0.5 mg/kg, time 1.0 hrs
[31] = tested on: Mus musculus; assay: Antioxidant activity against scopolamine-induced Swiss albino mouse model assessed as increase in SOD level at 0.3 to 0.5 mg/kg, po by absorbance based analysis; type: functional, organism-based; details: dose 0.3-0.5 mg/kg
[32] = tested on: Mus musculus; assay: Antioxidant activity against scopolamine-induced Swiss albino mouse model assessed as increase in catalase level in brain at 0.3 to 0.5 mg/kg, po by absorbance based analysis; type: functional, organism-based; details: dose 0.3-0.5 mg/kg
[33] = tested on: Mus musculus; assay: Antioxidant activity against scopolamine-induced Swiss albino mouse model assessed as increase in MDA level at 0.3 to 0.5 mg/kg, po by absorbance based analysis; type: functional, organism-based; details: dose 0.3-0.5 mg/kg
[34] = tested on: Mus musculus; assay: Neuroprotective activity against scopolamine-induced Swiss albino mouse model assessed as increase in CREB1 mRNA level at 0.3 to 0.5 mg/kg, po measured after 6 days by RT-PCR analysis; type: functional, organism-based; details: dose 0.3-0.5 mg/kg, time 6.0 day
[35] = tested on: Mus musculus; assay: Neuroprotective activity against scopolamine-induced Swiss albino mouse model assessed as increase in C-FOS mRNA level at 0.3 to 0.5 mg/kg, po measured after 6 days by RT-PCR analysis; type: functional, organism-based; details: dose 0.3-0.5 mg/kg, time 6.0 day
[36] = tested on: Mus musculus; assay: Neuroprotective activity against scopolamine-induced Swiss albino mouse model assessed as increase in NR4A2 mRNA level at 0.3 to 0.5 mg/kg, po measured after 6 days by RT-PCR analysis; type: functional, organism-based; details: dose 0.3-0.5 mg/kg, time 6.0 day
[37] = tested on: Mus musculus; assay: Neuroprotective activity against scopolamine-induced Swiss albino mouse model assessed as effect on GAP43 mRNA level at 0.3 to 0.5 mg/kg, po measured after 6 days by RT-PCR analysis; type: functional, organism-based; details: dose 0.3-0.5 mg/kg, time 6.0 day
[38] = tested on: Mus musculus; assay: Neuroprotective activity against scopolamine-induced Swiss albino mouse model assessed as effect on PSD95 mRNA level at 0.3 to 0.5 mg/kg, po measured after 6 days by RT-PCR analysis; type: functional, organism-based; details: dose 0.3-0.5 mg/kg, time 6.0 day
[39] = tested on: Mus musculus; assay: Neuroprotective activity against scopolamine-induced Swiss albino mouse model assessed as upregulation of PKA mRNA level at 0.3 to 0.5 mg/kg, po measured after 6 days by RT-PCR analysis; type: functional, organism-based; details: dose 0.3-0.5 mg/kg, time 6.0 day
[40] = tested on: Mus musculus; assay: Neuroprotective activity against scopolamine-induced Swiss albino mouse model assessed as upregulation of MMP9 mRNA level at 0.3 to 0.5 mg/kg, po measured after 6 days by RT-PCR analysis; type: functional, organism-based; details: dose 0.3-0.5 mg/kg, time 6.0 day

C[C@@H](c1cccc(OC(=O)NCCc2c[nH]c3ccc(O)cc23)c1)N(C)C
IC50 [1]: 0.99 nM | IC50 [2]: 27.8 nM | Activity [3]: 26.2% | Activity [4]: 18.3% | Activity [5]: 5.56% | Activity [6]: 3.54% | IC50 [7]: 22900 nM | Activity [8]: Non-toxic | Activity [9]: Active | viability at 2.5 µM [10]: 65.9% | viability at 10 µM [11]: 63.3% | viability at 5 µM [12]: 71.3% | viability at 20 µM [13]: 80.7% | Activity [14]: inactive | Activity [15]: inactive | Papp [16]: 11.5 ×10⁻⁶ cm/s | inhibition [17]: 100% | inhibition [18]: Active | Activity [19]: 9% | Activity [20]: Non-toxic | fold change (FC) [21]: 1.25 | fold change (FC) [22]: 1.8 | Activity [23]: Non-toxic | Activity [24]: Non-toxic | Activity [25]: Non-toxic | Activity [26]: Non-toxic | Activity [27]: Active | Activity [28]: Active | Activity [29]: Active | Activity [30]: Active | Activity [31]: Active | Activity [32]: Active | Activity [33]: Active | Activity [34]: Active | Activity [35]: Active | Activity [36]: Active | Activity [37]: Active | Activity [38]: Active | Activity [39]: Active | Activity [40]: Active
